The values that follow come from PubChem BioAssay (NCI).

Assay in all cases: DTP human tumour cell line panel, 48 h
In assay [1] the test system is M14 melanoma.
The test system of assay [2] is NCI-H522 lung.
The test system of assay [3] is T-47D breast.
Assay [4] deals with UACC-62 melanoma.
Assay [5] concerns MALME-3M melanoma.
Assay [6] concerns U251 CNS.
The test system of assay [7] is PC-3 prostate.
Assay [8] relates to OVCAR-5 ovarian.
The test system of assay [9] is NCI-H460 lung.
Assay [10] deals with SR leukemia.

Each structure is given as a SMILES string.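 A five-concentration, 48-hour dose response in 96-well plates underlies each endpoint, interpolated linearly between surrounding concentrations. The concentration for full growth arrest is given as TGI.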 Some results are limits rather than exact numbers.

For the compound `Nc1ccccc1N/C(=C\C(=O)C(Cl)(Cl)Cl)c1ccccc1`, the TGI – broadly, the concentration giving total growth inhibition – in [1] worked out at 42.2 µM; in assay [2], 35 µM; in [3], 91.6 µM; in assay [4], 45.3 µM; in [5] it was 37.7 µM; in [6], 32 µM. Besides, the TGI in assay [7] is 68.8 µM; in [8], 41.5 µM; in [9], 69.4 µM; in [10], above 100 µM.
As for `O=C(CCN1CC2CCC(CC2)C1)c1cccs1`, the TGI in assay [1] came out at 31.8 µM; in [2], 36.3 µM; in assay [3] it was 24.1 µM; in assay [4] it was 31.9 µM; in assay [5], 39.3 µM; in assay [6], 33.5 µM. Further, the TGI in assay [7] came to 31.1 µM; in assay [8] it was 33.1 µM; in assay [9] it was 37.5 µM; in [10] it was 24.6 µM.
Regarding `COc1ccc(N=C2C(=O)C3=C(OC(C)(C)CC3)c3ccccc32)cc1`, the TGI in assay [1] worked out at 1.5 µM; in [2], 2.45 µM; in assay [3], 2.2 µM; in [4] it was 1.74 µM; in assay [5] it was 1.59 µM; in assay [6], 1.65 µM. Besides, the TGI in assay [7] came to 5.49 µM; in assay [8] it was 6.14 µM; in assay [9], 5.72 µM; in assay [10], 3.44 µM.
Turning to `N#CC(c1ccccc1)N1CCCN(C(C#N)c2ccccc2)C1c1ccccc1O` (stereo not given), the TGI in [1], in [2], in [3], in assay [4], in assay [5] and in assay [6] was above 100 µM throughout. For the same compound, the TGI in [7], in assay [8], in assay [9] and in [10] was above 100 µM each time.
Consider `COc1ccc(N=c2ssc(C(=S)Nc3ccc(OC)cc3)c2S)cc1`, for which the TGI in assay [1], in assay [2], in assay [3], in assay [4], in assay [5] and in assay [6] was above 100 µM in each case. For the same compound, the TGI in assay [7], in assay [8], in assay [9] and in assay [10] was above 100 µM each time.
In the case of `C[C@]12CCC(=O)C=C1CC[C@@H]1[C@@H]2[C@@H](O)C[C@@]2(C)[C@H]1CC[C@]2(O)C(=O)CO`, the TGI in [1], in assay [2], in assay [3], in assay [4], in [5] and in assay [6] was above 100 µM each time. Further, the TGI in assay [7], in [8], in [9] and in assay [10] was above 100 µM throughout.
Consider `CN(C)CCn1c(=O)c2ccc3c4c(nn3CCN(C)C)c3cc(N)ccc3n(c1=O)c24`, for which the TGI in assay [1] was 0.18 µM; in [2], 0.27 µM; in assay [3], 0.849 µM; in [4] it was 0.281 µM; in assay [5] it was 0.257 µM; in [6], 3.39 µM. For the same compound, the TGI is 0.114 µM in [7], 0.111 µM in assay [8], 0.0904 µM in assay [9] and above 42.5 µM in assay [10].
In the case of `COc1c2c(cc3c1C(O)N1CC[C@]34[C@H]3O[C@H]3[C@H](OC)C[C@@H]14)OCO2` (stereo not given in full), the TGI was above 100 µM in [1]; 96.7 µM in assay [2]; above 100 µM in assay [3]; above 100 µM in [4]; above 100 µM in assay [5]; above 100 µM in assay [6]. The TGI in assay [7] is above 100 µM; in assay [8], above 100 µM; in assay [9], above 100 µM; in assay [10] it was 88.6 µM.
For the compound `CN(CCCNC(=O)c1cn(C)c2c1ccc1cc(Cl)c(Cl)cc12)CCCNC(=O)c1cn(C)c2c1ccc1cc(Cl)c(Cl)cc12`, the TGI was 27.5 µM in assay [1]; 31.5 µM in assay [2]; 36.2 µM in assay [3]; 31.7 µM in [4]; 31.8 µM in [5]; 11.4 µM in assay [6]. Besides, the TGI in assay [7] turned out to be 27.4 µM; in assay [8], 31.2 µM; in assay [9], 29.8 µM; in [10], 16.5 µM.
